What was measured:
blackgrass = assay: Test C postemergence; assay type: in vivo, Alopecurus myosuroides; settings: for Blackgrass plant response rating / Plant response rating, Blackgrass: scale 0 to 100 (0 no effect, 100 complete control)
How it was run: (§1)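 Greenhouse herbicide screen. Pre: seeded loam/sand, sprayed at planting. Post: 1–4 leaf plants (2–18 cm) in peat-based mix. Formulation: solvent mixture + surfactant, non-phytotoxic. Readout: visual % control vs untreated, 13–15 d; dash = not tested.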

morningglory = assay: Test A postemergence; assay type: in vivo, Ipomoea spp.; settings: 0 to 100 scale where 0 is no effect and 100 is complete control; for Morningglory plant response rating: 125 g ai/ha; for Plant response rating, Morningglory: 500 g ai/ha
How it was run: (§2)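 Compounds in non-phytotoxic solvent with surfactant applied as soil spray preemergence, or postemergence to plants 2-10 cm at one- to two-leaf stage, in loam/sand. After approximately 10 days in greenhouse, injury rated visually versus untreated controls, 0 (no effect) to 100 (complete control).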

Heteranthera limosa = assay: Test B flooded paddy test; assay type: in vivo; settings: Flood, 250 g ai/ha; 0 to 100 scale where 0 is no effect and 100 is complete control
How it was run: (§3)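 Visual ratings on a 0 to 100 scale, where 100 means complete control, compared treated plants with controls after 13 to 15 days in a greenhouse. Treatment went into paddy water 3 cm deep over the soil, applied to plants at the 2-leaf stage.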

corn = assay: Test A preemergence; assay type: in vivo, Zea mays; settings: for Corn plant response rating: 500 g ai/ha
How it was run: as §2

barnyardgrass = assay: Test C postemergence; assay type: in vivo, Echinochloa crus-galli; settings: for Barnyardgrass plant response rating / Plant response rating, Barnyardgrass: scale 0 to 100 (0 no effect, 100 complete control)
How it was run: as §1

kochia = assay: Test C postemergence; assay type: in vivo, Kochia scoparia; settings: for Kochia plant response rating / Plant response rating, Kochia: scale 0 to 100 (0 no effect, 100 complete control)
How it was run: as §1

lambsquarters [1] = assay: Test C preemergence; assay type: in vivo, Chenopodium album; settings: for Lambsquarters plant response rating: preemergence; for Plant response rating, Lambsquarters: Preemergence, scale 0 to 100, 0 no effect, 100 complete control
How it was run: as §1

pigweed [2] = assay: Test C preemergence; assay type: in vivo, Amaranthus retroflexus; settings: for Pigweed plant response rating: preemergence; for Plant response rating, Pigweed: Preemergence, scale 0 to 100, 0 no effect, 100 complete control
How it was run: as §1

rice = assay: Test B flooded paddy test; assay type: in vivo, Oryza sativa; settings: Flood, 250 g ai/ha; 0 to 100 scale where 0 is no effect and 100 is complete control
How it was run: as §3

wheat, winter = assay: Test C preemergence; assay type: in vivo, Triticum aestivum; settings: for Wheat plant response rating: preemergence; for Plant response rating, Wheat: Preemergence, scale 0 to 100, 0 no effect, 100 complete control
How it was run: as §1

pigweed [3] = assay: Test C postemergence; assay type: in vivo, Amaranthus retroflexus; settings: for Pigweed plant response rating: 31 g ai/ha; for Pigweed plant response rating / Plant response rating, Pigweed: scale 0 to 100 (0 no effect, 100 complete control)
How it was run: as §1

soybean = assay: Test C postemergence; assay type: in vivo, Glycine max; settings: for Soybean plant response rating: 31 g ai/ha; for Soybean plant response rating / Plant response rating, Soybean: scale 0 to 100 (0 no effect, 100 complete control)
How it was run: as §1

Italian ryegrass = assay: Test C postemergence; assay type: in vivo, Lolium multiflorum; settings: for Ryegrass, Italian plant response rating: 31 g ai/ha; for Ryegrass, Italian plant response rating / Plant response rating, Ryegrass, Italian: scale 0 to 100 (0 no effect, 100 complete control)
How it was run: as §1

yellow nutsedge = assay: Test C preemergence; assay type: in vivo, Cyperus esculentus; settings: for Nutsedge, Yellow plant response rating: preemergence; for Plant response rating, Nutsedge, Yellow: Preemergence, scale 0 to 100, 0 no effect, 100 complete control
How it was run: as §1

lambsquarters [4] = assay: Test C postemergence; assay type: in vivo, Chenopodium album; settings: for Lambsquarters plant response rating: 31 g ai/ha; for Lambsquarters plant response rating / Plant response rating, Lambsquarters: scale 0 to 100 (0 no effect, 100 complete control)
How it was run: as §1

[5] = 31 g ai/ha, postemergence, visual rating, 13 to 15 days
[6] = 125 g ai/ha, postemergence, visual rating
[7] = Postemergence, 62 g ai/ha, 13 to 15 days
[8] = 0 to 100 scale where 0 is no effect and 100 is complete control
[9] = 125 g ai/ha, scale 0 (no effect) to 100 (complete control)
[10] = 250 g ai/ha, scale 0 (no effect) to 100 (complete control)
[11] = postemergence, visual rating, 13 to 15 days
[12] = 16 g ai/ha, postemergence, visual rating, 13 to 15 days
[13] = Postemergence, 31 g ai/ha, 13 to 15 days
[14] = 16 g ai/ha, scale 0 to 100 (0 no effect, 100 complete control)
[15] = 62 g ai/ha, scale 0 (no effect) to 100 (complete control)
[16] = 16 g ai/ha, postemergence, 0 is no effect, 100 is complete control

N#Cc1cccc(Oc2ncc(Cl)cn2)c1-n1cc(I)cn1 [Compound 204]
Blackgrass plant response rating (blackgrass; [5]): 5 | Plant response rating, Blackgrass (blackgrass; [6]): 10 | Plant response rating (0 to 100), Blackgrass (blackgrass; 250 g ai/ha, postemergence): 25 | Plant response rating, Blackgrass (blackgrass; [7]): 5 | Morningglory plant response rating (morningglory): 80 | Plant response rating, Morningglory (morningglory): 100 | Plant response rating, Ducksalad (Heteranthera limosa): 70 | Corn plant response rating (0 to 100 scale) (corn; 125 g ai/ha): 0 | Corn plant response rating (corn; [8]): 30 | Barnyardgrass plant response rating (barnyardgrass; [5]): 5 | Plant response rating, Barnyardgrass (barnyardgrass; [6]): 5 | Plant response rating (0 to 100), Barnyardgrass (barnyardgrass; 250 g ai/ha, postemergence): 35 | Plant response rating, Barnyardgrass (barnyardgrass; Postemergence, 62 g ai/ha): 10 | Kochia plant response rating (kochia; [5]): 90 | Plant response rating, Kochia (kochia; [6]): 100 | Plant response rating (0 to 100), Kochia (kochia; 250 g ai/ha, postemergence): 100 | Plant response rating, Kochia (kochia; [7]): 100 | Lambsquarters plant response rating (lambsquarters [1]; [9]): 95 | Lambsquarters plant response rating (lambsquarters [1]; [10]): 98 | Plant response rating, Lambsquarters (lambsquarters [1]; 62 g ai/ha): 98 | Pigweed plant response rating (pigweed [2]; [9]): 98 | Pigweed plant response rating (pigweed [2]; [10]): 98 | Plant response rating, Pigweed (pigweed [2]; 62 g ai/ha): 100 | Plant response rating, Rice (rice): 20 | Wheat plant response rating (wheat, winter; [9]): 30 | Wheat plant response rating (wheat, winter; [10]): 60 | Plant response rating, Wheat (wheat, winter; 62 g ai/ha): 5 | Pigweed plant response rating (pigweed [3]; [11]): 80 | Plant response rating, Pigweed (pigweed [3]; [6]): 95 | Plant response rating (0 to 100), Pigweed (pigweed [3]; 250 g ai/ha, postemergence): 98 | Plant response rating, Pigweed (pigweed [3]; [7]): 95 | Soybean plant response rating (soybean; [11]): 70 | Plant response rating, Soybean (soybean; [6]): 95 | Plant response rating (0 to 100), Soybean (soybean; 250 g ai/ha, postemergence): 95 | Plant response rating, Soybean (soybean; [7]): 95 | Ryegrass, Italian plant response rating (Italian ryegrass; [11]): 5 | Plant response rating, Ryegrass, Italian (Italian ryegrass; [6]): 10 | Plant response rating (0 to 100), Ryegrass, Italian (Italian ryegrass; 250 g ai/ha, postemergence): 10 | Plant response rating, Ryegrass, Italian (Italian ryegrass; [7]): 5 | Nutsedge, Yellow plant response rating (yellow nutsedge; [9]): 60 | Nutsedge, Yellow plant response rating (yellow nutsedge; [10]): 60 | Plant response rating, Nutsedge, Yellow (yellow nutsedge; 62 g ai/ha): 0 | Lambsquarters plant response rating (lambsquarters [4]; [11]): 85 | Plant response rating, Lambsquarters (lambsquarters [4]; [6]): 90 | Plant response rating (0 to 100), Lambsquarters (lambsquarters [4]; 250 g ai/ha, postemergence): 95 | Plant response rating, Lambsquarters (lambsquarters [4]; [7]): 80

N#Cc1cnn(-c2c(C#N)cccc2Oc2ncc(F)cn2)c1 [Compound 111]
Blackgrass plant response rating (blackgrass; [12]): 0 | Plant response rating, Blackgrass (blackgrass; [6]): 10 | Plant response rating, Blackgrass (blackgrass; [13]): 0 | Plant response rating, Blackgrass (blackgrass; Postemergence, 62 g ai/ha): 5 | Plant response rating, Morningglory (morningglory): 90 | Plant response rating, Ducksalad (Heteranthera limosa): 70 | Plant response rating, Corn (corn; 125 g ai/ha, 0 to 100 scale where 0 is no effect and 100 is complete control): 20 | Corn plant response rating (corn; 0 to 100 scale, 0 no effect, 100 complete control, approx. 10 days): 50 | Barnyardgrass plant response rating (barnyardgrass; [12]): 5 | Plant response rating, Barnyardgrass (barnyardgrass; [6]): 35 | Plant response rating, Barnyardgrass (barnyardgrass; [13]): 5 | Plant response rating, Barnyardgrass (barnyardgrass; Postemergence, 62 g ai/ha): 5 | Kochia plant response rating (kochia; [12]): 60 | Plant response rating, Kochia (kochia; [6]): 95 | Plant response rating, Kochia (kochia; Postemergence, 62 g ai/ha): 90 | Lambsquarters plant response rating (lambsquarters [1]; [14]): 50 | Lambsquarters plant response rating (lambsquarters [1]; [15]): 100 | Lambsquarters plant response rating (lambsquarters [1]; [9]): 100 | Plant response rating, Lambsquarters (lambsquarters [1]; 31 g ai/ha): 100 | Pigweed plant response rating (pigweed [2]; [14]): 75 | Pigweed plant response rating (pigweed [2]; [15]): 100 | Pigweed plant response rating (pigweed [2]; [9]): 100 | Plant response rating, Pigweed (pigweed [2]; 31 g ai/ha): 95 | Plant response rating, Rice (rice): 0 | Wheat plant response rating (wheat, winter; [14]): 0 | Wheat plant response rating (wheat, winter; [15]): 0 | Wheat plant response rating (wheat, winter; [9]): 20 | Plant response rating, Wheat (wheat, winter; 31 g ai/ha): 30 | Plant response rating, Pigweed (pigweed [3]; [6]): 85 | Plant response rating, Pigweed (pigweed [3]; Postemergence, 62 g ai/ha): 85 | Plant response rating, Soybean (soybean; [6]): 95 | Plant response rating, Soybean (soybean; Postemergence, 62 g ai/ha): 80 | Plant response rating, Ryegrass, Italian (Italian ryegrass; [6]): 0 | Plant response rating, Ryegrass, Italian (Italian ryegrass; Postemergence, 62 g ai/ha): 0 | Nutsedge, Yellow plant response rating (yellow nutsedge; [14]): 0 | Nutsedge, Yellow plant response rating (yellow nutsedge; [15]): 15 | Nutsedge, Yellow plant response rating (yellow nutsedge; [9]): 50 | Plant response rating, Nutsedge, Yellow (yellow nutsedge; 31 g ai/ha): 0 | Plant response rating, Lambsquarters (lambsquarters [4]; [6]): 90 | Plant response rating, Lambsquarters (lambsquarters [4]; Postemergence, 62 g ai/ha): 80

N#Cc1cnn(-c2c(Oc3ncc(Cl)cn3)cccc2C(F)F)c1 [Compound 236]
Plant response rating (0 to 100), Blackgrass (blackgrass; [16]): 0 | Blackgrass plant response rating (blackgrass; [5]): 5 | Plant response rating, Blackgrass (blackgrass; [6]): 20 | Plant response rating, Blackgrass (blackgrass; [7]): 5 | Morningglory plant response rating (morningglory): 80 | Plant response rating, Morningglory (morningglory): 100 | Plant response rating, Ducksalad (Heteranthera limosa): 100 | Corn plant response rating (0 to 100 scale) (corn; 125 g ai/ha): 20 | Corn plant response rating (corn; [8]): 90 | Plant response rating (0 to 100), Barnyardgrass (barnyardgrass; [16]): 5 | Barnyardgrass plant response rating (barnyardgrass; [5]): 5 | Plant response rating, Barnyardgrass (barnyardgrass; [6]): 10 | Plant response rating, Barnyardgrass (barnyardgrass; Postemergence, 62 g ai/ha): 5 | Plant response rating (0 to 100), Kochia (kochia; [16]): 30 | Kochia plant response rating (kochia; [5]): 80 | Plant response rating, Kochia (kochia; [6]): 90 | Plant response rating, Kochia (kochia; [7]): 85 | Lambsquarters plant response rating (lambsquarters [1]; [14]): 98 | Lambsquarters plant response rating (lambsquarters [1]; [9]): 100 | Plant response rating, Lambsquarters (lambsquarters [1]; 62 g ai/ha): 100 | Pigweed plant response rating (pigweed [2]; [14]): 100 | Pigweed plant response rating (pigweed [2]; [9]): 100 | Plant response rating, Pigweed (pigweed [2]; 62 g ai/ha): 100 | Plant response rating, Rice (rice): 0 | Wheat plant response rating (wheat, winter; [14]): 0 | Wheat plant response rating (wheat, winter; [9]): 60 | Plant response rating, Wheat (wheat, winter; 62 g ai/ha): 0 | Plant response rating (0 to 100), Pigweed (pigweed [3]; [16]): 60 | Pigweed plant response rating (pigweed [3]; [11]): 90 | Plant response rating, Pigweed (pigweed [3]; [6]): 95 | Plant response rating, Pigweed (pigweed [3]; [7]): 90 | Plant response rating (0 to 100), Soybean (soybean; [16]): 60 | Soybean plant response rating (soybean; [11]): 75 | Plant response rating, Soybean (soybean; [6]): 95 | Plant response rating, Soybean (soybean; [7]): 85 | Plant response rating (0 to 100), Ryegrass, Italian (Italian ryegrass; [16]): 0 | Ryegrass, Italian plant response rating (Italian ryegrass; [11]): 0 | Plant response rating, Ryegrass, Italian (Italian ryegrass; [6]): 0 | Plant response rating, Ryegrass, Italian (Italian ryegrass; [7]): 0 | Nutsedge, Yellow plant response rating (yellow nutsedge; [14]): 0 | Nutsedge, Yellow plant response rating (yellow nutsedge; [9]): 75 | Plant response rating, Nutsedge, Yellow (yellow nutsedge; 62 g ai/ha): 60 | Plant response rating (0 to 100), Lambsquarters (lambsquarters [4]; [16]): 80 | Lambsquarters plant response rating (lambsquarters [4]; [11]): 85 | Plant response rating, Lambsquarters (lambsquarters [4]; [6]): 90 | Plant response rating, Lambsquarters (lambsquarters [4]; [7]): 75

From patent US9695155B2, “Herbicidal substituted pyrimidinyloxy benzene compounds” (E. I. DU PONT DE NEMOURS AND COMPANY, priority 2013, dated 2017)
